Results published in patent EP0223143A2, “Analogs of atrial natriuretic peptides” (CALIFORNIA BIOTECHNOLOGY, INC., priority 1985, dated 1987).
“Also recorded” adds a separate entry of the source. Where a SMILES comes first, the peptide text is derived from it. Bridges are numbered along the chain shown (N, C = ends). Where no end group is shown, it is not given here. [ ]: non-standard residue; d: D form. The star is where a group is joined. Phenylacetyl(4-Ph) = O=C(Cc1ccc(-c2ccccc2)cc1)*; Acetyl(2-naphthyloxy) = O=C(COc1ccc2ccccc2c1)*; Acetyl(2-naphthyl) = O=C(Cc1ccc2ccccc2c1)*

How the values were obtained:
[1] = tested on: specific receptor sites on BASM or BAE cells; assay: competitive displacement receptor binding assay (Tables IA-IE); parameters: species or system bovine; details: statements in words on Tables IA-IE; displacement of [^125I]-rANP(126-150)
Excerpt: (§1) An assay has been developed, generally in accordance with the disclosure of Schenk, supra, and Scarborough, R.M. et al., J. Biol. Chem. 261:12960-12964 (1986), which evaluates the ability of ANP analogs to compete with a labeled native ANP for binding to cultured BASM and BAE cells. This native ANP, having the amino acid sequence: [drawing 103] was iodinated on the Carboxy-terminal Y residue and is identified as […]. Analogous "competitive displacement" receptor binding assays are considered commonplace in the art for examining specific ligand-receptor interactions.
(§2) Assuming these ANP analogs act at one or more ANP receptor sites, then increased receptor affinity should reflect increased biological potency.

[2] = tested on: pentobarbital anesthetized dogs; assay: diuresis and natriuresis in anesthetized dogs; assay type: in vivo; details: vs saline controls
Procedure: In these examples, cannulae were placed in the left and right ureters and femoral vein of anesthetized dogs and urine was collected from the ureters. Analog peptides were administered via the femoral vein. Prior to infusing analog peptides, saline was infused for 30 minutes and urine was then collected for three ten minute collection periods. Urine volume was determined gravimetrically and urine sodium was determined photometrically.
Following these three baseline collection periods, the selected analog peptides were infused for 60 minutes and urinary flow was measured for an additional 60 minutes following infusion. During infusion (60 minutes) and recovery (60 minutes), ten minute collection periods were obtained. Control animals which received only saline were studied in parallel.

anesthetized rats = assay: diuresis in anesthetized rats; assay type: in vivo; details: compared with baseline, Figure 2
Procedure: In one set of examples, cannulae were placed in the left and right ureters and femoral vein of anesthetized rats and urine was collected from the ureters. Analog peptides were administered via the femoral vein. Prior to infusing the analog peptides, saline was infused for 30 minutes, urine was collected for 6 five minutes baseline periods and urine volume was determined gravimetrically. Following these baseline collection periods, various analog peptides were infused for 30 or 60 minutes and urine volume was measured in five minute periods during infusion and for 60 minutes following infusion (at which time rats were returned to saline). Data was examined by averaging urine flow rates for six five- minute baseline control periods immediately preceding infusion, and comparing values during and after administration of peptides with the "baseline" control values. Responses to peptides are thus evaluated and plotted as the percent of baseline control responses. Specific examples are shown in Figures 2A-H. The error bars at the beginning of the graphs represent baseline values ± standard deviations. Responses to peptides that are substantially above baseline ± SD can thus be interpreted as being statistically significant increases.

[3] = target: T1, BASM cell-associated receptors (Bos taurus, UniProt P10730); assay: competitive displacement receptor binding assay, BASM cells (Figure 1); parameters: species or system bovine; details: 0.5 nM [^125I]-rANP(126-150), increasing concentrations of unlabeled peptide
T1 construct: endogenous in cells; host or cells: cultured BASM cells
T1 sequence (P10730 42-537): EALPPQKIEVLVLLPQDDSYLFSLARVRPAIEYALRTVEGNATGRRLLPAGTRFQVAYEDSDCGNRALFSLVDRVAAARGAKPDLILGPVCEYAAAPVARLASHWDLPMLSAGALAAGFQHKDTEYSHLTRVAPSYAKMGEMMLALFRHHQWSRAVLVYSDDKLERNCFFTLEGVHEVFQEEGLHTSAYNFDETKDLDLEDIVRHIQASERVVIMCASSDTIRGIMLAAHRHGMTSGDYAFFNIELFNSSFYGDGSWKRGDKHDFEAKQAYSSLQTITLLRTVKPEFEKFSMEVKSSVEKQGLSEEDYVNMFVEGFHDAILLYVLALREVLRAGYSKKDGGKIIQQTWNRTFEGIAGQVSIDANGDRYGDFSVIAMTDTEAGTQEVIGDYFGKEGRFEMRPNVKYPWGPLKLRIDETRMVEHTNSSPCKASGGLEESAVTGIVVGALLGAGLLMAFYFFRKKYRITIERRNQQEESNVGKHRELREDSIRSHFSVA
Excerpt: as §1, §2

[4] = infused at 3 µg/kg/minute for 60 minutes
[5] = infused at 1 µg/kg/minute for 60 minutes

Compound	receptor binding affinity (Ki(app)) [1]	also measured
CC[C@H](C)[C@@H]1NC(=O)[C@H](CCCNC(=N)N)NC(=O)[C@H](CC(=O)O)NC(=O)[C@H]([C@@H](C)CC)NC(=O)[C@H](CCCNC(=N)N)NC(=O)CNC(=O)[C@@H](NC(=O)[C@H](CO)NC(=O)[C@H](CO)NC(=O)[C@@H](N)CCCNC(=N)N)CSSC[C@@H](C(=O)N[C@@H](CC(N)=O)C(=O)N[C@@H](CO)C(=O)N[C@@H](Cc2ccccc2)C(=O)N[C@@H](CCCNC(=N)N)C(=O)N[C@@H](Cc2ccc(O)cc2)C(=O)O)NC(=O)CNC(=O)[C@H](CC(C)C)NC(=O)CNC(=O)[C@H](CO)NC(=O)[C@H](CCC(N)=O)NC(=O)[C@H](C)NC(=O)CNC1=O [AP24, R-S-S-C-G-R-I-D-R-I-G-A-O-S-G-L-G-C-N-S-F-R-Y] (H-RSSCGRIDRIGAQSGLGCNSFRY-OH; disulfide 4-18)	weaker apparent affinity	–
CC[C@H](C)[C@H](NC(=O)[C@H](CCCNC(=N)N)NC(=O)[C@H](CC(=O)O)NC(=O)[C@@H](NC(=O)[C@@H](CCCNC(=N)N)NC(=O)CNC(=O)CNC(=O)[C@H](Cc1ccccc1)NC(=O)[C@H](C)N)[C@@H](C)CC)C(=O)NCC(=O)N[C@@H](C)C(N)=O [AP301, A-F-G-G-[D-R]-I-D-R-I-G-A-NH2] (H-AFGG[dR]IDRIGA-NH2)	inactive	–
CC[C@H](C)[C@H](NC(=O)[C@H](CCCNC(=N)N)NC(=O)[C@@H](CC(=O)O)NC(=O)[C@@H](NC(=O)[C@H](CCCNC(=N)N)NC(=O)CNC(=O)CNC(=O)[C@H](Cc1ccccc1)NC(=O)[C@H](C)N)[C@@H](C)CC)C(=O)NCC(=O)N[C@@H](C)C(N)=O [AP303, A-F-G-G-R-I-[D-D]-R-I-G-A-NH,] (H-AFGGRI[dD]RIGA-NH2)	inactive	–
CC[C@H](C)[C@H](NC(=O)[C@H](CCCNC(=N)N)NC(=O)CNC(=O)CNC(=O)[C@H](Cc1ccccc1)NC(=O)[C@H](C)N)C(=O)N[C@@H](CC(=O)O)C(=O)N[C@H](CCCNC(=N)N)C(=O)N[C@H](C(=O)NCC(=O)N[C@@H](C)C(N)=O)[C@@H](C)CC [AP304, A-F-G-G-R-I-D-[D-R]-I-G-A-NH2] (H-AFGGRID[dR]IGA-NH2)	inactive	–
CC[C@H](C)[C@H](NC(=O)[C@H](CCCNC(=N)N)NC(=O)[C@H](CC(=O)O)NC(=O)[C@@H](NC(=O)[C@H](CCCNC(=N)N)NC(=O)CNC(=O)CNC(=O)Cc1ccc2ccccc2c1)[C@@H](C)CC)C(=O)NCC(=O)N[C@@H](C)C(N)=O [AP306, [2-Napthylacetyl]-G-G-R-I-D-R-I-G-A-NH2] ({Acetyl(2-naphthyl)}-GGRIDRIGA-NH2)	high binding affinity; also recorded: substantial Ki(app)s	urinary sodium excretion [2, 4]: significantly increased; urine flow rate (urine volume) [2, 4]: significantly increased
CC[C@H](C)[C@H](NC(=O)[C@H](CCCNC(=N)N)NC(=O)[C@H](CC(=O)O)NC(=O)[C@@H](NC(=O)[C@H](CCCNC(=N)N)NC(=O)CNC(=O)CNC(=O)Cc1ccc2ccccc2c1)[C@@H](C)CC)C(N)=O [AP314, [2-Napthylacetyl]-G-G-R-I-D-R-I-NH2] ({Acetyl(2-naphthyl)}-GGRIDRI-NH2)	high binding affinity; also recorded: substantial Ki(app)s	urinary sodium excretion [2, 5]: significantly increased; urine flow rate (urine volume) [2, 5]: significantly increased
CC[C@H](C)[C@H](NC(=O)[C@H](CCCNC(=N)N)NC(=O)[C@H](CC(=O)O)NC(=O)[C@@H](NC(=O)[C@H](CCCNC(=N)N)NC(=O)CNC(=O)CNC(=O)Cc1ccc(-c2ccccc2)cc1)[C@@H](C)CC)C(N)=O [AP317, [4-Biphenylacetyl]-G-G-R-I-D-R-I-NH2] ({Phenylacetyl(4-Ph)}-GGRIDRI-NH2)	greatly diminished activity	–
CC[C@H](C)[C@H](NC(=O)[C@H](CCCNC(=N)N)NC(=O)[C@H](CC(=O)O)NC(=O)[C@@H](NC(=O)[C@H](CCCNC(=N)N)NC(=O)CNC(=O)CNC(=O)COc1ccc2ccccc2c1)[C@@H](C)CC)C(N)=O [AP319, [2-Napthoxyacetyl]-G-G-R-I-D-R-I-NH2] ({Acetyl(2-naphthyloxy)}-GGRIDRI-NH2)	high binding affinity	urine flow rate (urine volume) (anesthetized rats; infused at 10 µg/min via femoral vein): significantly increased
CC[C@H](C)[C@H](NC(=O)[C@H](CCCNC(=N)N)NC(=O)[C@H](CC(=O)O)NC(=O)[C@@H](NC(=O)[C@H](CCCNC(=N)N)NC(=O)CNC(=O)[C@@H](C)NC(=O)COc1ccc2ccccc2c1)[C@@H](C)CC)C(N)=O [AP322, [2-Napthoxyacetyl]-[D-A]-G-R-I-D-R-I-NH2] ({Acetyl(2-naphthyloxy)}-[dA]GRIDRI-NH2)	greatly diminished activity	–
CC[C@H](C)[C@H](NC(=O)[C@H](CCCNC(=N)N)NC(=O)CNC(=O)CNC(=O)Cc1ccc2ccccc2c1)C(=O)N[C@@H](CC(=O)O)C(=O)N[C@@H](CCCNC(=N)N)C(=O)N[C@H](C(N)=O)C(C)C [AP333, [2-Napthylacetyl]-G-G-R-I-D-R-V-NH2] ({Acetyl(2-naphthyl)}-GGRIDRV-NH2)	greatly diminished activity	–
(desNH2-F)-G-G-R-I-D-R-I-NH2 [AP132]	–	[^125I]-rANP(126-150) binding to BASM cell-associated receptors [3]: effectively prevent
AFGGRIDRIGA-NH2 [AP101, A-F-G-G-R-I-D-R-I-G-A-NH2]	substantial Ki(app)s	urine flow rate (urine volume) (anesthetized rats; infused at 5 µg/min via femoral vein): significantly increased; [^125I]-rANP(126-150) binding to BASM cell-associated receptors [3]: effectively prevent; urinary sodium excretion [2, 4]: significantly increased; urine flow rate (urine volume) [2, 4]: significantly increased
GGRIDRIGAA-NH2 [AP105, G-G-R-I-D-R-I-G-A-A-NH2]	inactive	–
RIDRIG-NH2 [AP125, R-I-D-R-I-G-NH2]	inactive	–
